Here are results for 18 compounds from US12606552B2, “Bifunctional compound, preparation method therefor, and use thereof” (SUZHOU KINTOR PHARMACEUTICALS, INC., priority 2020, dated 2026).

A short description of data set [1]: Pharmacokinetic studies of compounds in mice. The data set is classed as in vivo. To be noted: male mice, intragastric administration 10 mg/kg, plasma. Here is the method: Activity Assay Example 3: Pharmacokinetic Studies of Compounds in Mice
In this test, 3 male mice were selected and divided into 1 group, 3 mice/group. All animals were fasted overnight before administration.
The intragastric administration dose was 10 mg/kg, and the administration volume was 10 mL/kg.
2.2 Preparation of Drug Solution
According to the animal body weight combined with the administration dose, the amount of the required drug solution was calculated. An appropriate amount of the test substance was weighed, added with 5% of the final volume of ethanol for dissolution, then added with 5% of the final volume of SolutolHS15, and finally added with PBS to the final volume, and mixed by vortex and fully dissolved to obtain a solution for intragastric administration (1 mg/mL). All solutions were prepared for immediate use.
2.3 Method of Administration
Before administration, the drug solution was placed on a magnetic stirrer in the animal laboratory and stirred for at least 10 min. During the administration process, vortex was continued to ensure uniformity of the drug solution. The theoretical volume of gavage administration was 10 mL/kg, which was administered with a syringe equipped with a gavage needle.
Before administration, the animals were weighed and the body weight of the animals involved in the experiment was recorded, and the administration volume of each animal was calculated according to the body weight. After administration, animals were promptly transferred back to the experimental cages to collect samples.
2.4 Observation of Animal Status
After administration, whether animals had abnormal reactions was observed immediately. If there were no abnormal reactions, animals were observed twice a day during the experiment. If abnormal reactions were found, they should be recorded in time, and the number of observations should be increased until the animals returned to normal or to the end of the experiment.
2.5 Sample Collection and Preservation
All experimental animals were fasted overnight before administration, and blood was collected at corresponding time points into blood collection tubes containing heparin sodium anticoagulant. After the whole blood was collected, the blood collection tube was gently shaken and placed on ice immediately, and then centrifuged (4° C., 4000 rpm, 10 min) to collect supernatant plasma samples, which were stored in a refrigerator at −80° C. before analysis.
2.6 Plasma Sample Processing and Analysis
The collected plasma samples were handed over to the Pharmacokinetic department for sample extraction, and the test substances in the plasma were extracted by protein precipitation method using organic reagents containing internal standards (acetonitrile:plasma=4:1, v/v). The extracted processed samples were submitted for quantitative concentration analysis by LC-MS/MS. According to the plasma concentration of each animal obtained by the analysis, software Kinetica (version 5.0) was used to calculate the main pharmacokinetic parameter eAUC30-120 according to the non-compartment model to evaluate the exposure amount; the test results are shown in Table 2: […]

A further data set concerns the target T1, AR (Homo sapiens, UniProt P10275, T878A).
T1 sequence (P10275 1-920 T878A): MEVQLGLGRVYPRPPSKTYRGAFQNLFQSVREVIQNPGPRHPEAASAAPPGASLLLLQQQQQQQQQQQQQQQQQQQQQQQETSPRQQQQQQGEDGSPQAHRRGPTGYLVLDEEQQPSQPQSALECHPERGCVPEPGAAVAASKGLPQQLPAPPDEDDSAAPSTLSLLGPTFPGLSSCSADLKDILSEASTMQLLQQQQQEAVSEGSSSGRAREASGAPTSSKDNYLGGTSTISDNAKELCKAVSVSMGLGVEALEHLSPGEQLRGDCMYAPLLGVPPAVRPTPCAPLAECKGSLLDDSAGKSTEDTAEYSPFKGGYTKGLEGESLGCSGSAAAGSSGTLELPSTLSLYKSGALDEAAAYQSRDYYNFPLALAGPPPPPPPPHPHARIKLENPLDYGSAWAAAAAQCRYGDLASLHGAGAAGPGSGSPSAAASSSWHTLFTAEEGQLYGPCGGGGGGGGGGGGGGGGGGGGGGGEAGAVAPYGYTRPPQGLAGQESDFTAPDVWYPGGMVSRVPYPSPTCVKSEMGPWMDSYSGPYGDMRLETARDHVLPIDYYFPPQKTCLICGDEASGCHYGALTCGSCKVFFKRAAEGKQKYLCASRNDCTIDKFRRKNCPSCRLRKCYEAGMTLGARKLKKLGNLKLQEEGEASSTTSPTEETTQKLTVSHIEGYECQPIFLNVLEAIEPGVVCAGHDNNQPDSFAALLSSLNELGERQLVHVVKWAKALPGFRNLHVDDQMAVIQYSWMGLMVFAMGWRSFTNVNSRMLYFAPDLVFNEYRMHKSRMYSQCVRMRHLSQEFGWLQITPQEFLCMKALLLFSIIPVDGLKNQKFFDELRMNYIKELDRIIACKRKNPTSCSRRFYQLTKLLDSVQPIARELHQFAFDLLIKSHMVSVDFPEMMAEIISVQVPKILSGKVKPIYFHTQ
As to the kind of experiment: Effects of compounds on AR expression in LNCaP cells (ELISA, DC50). The data set is classed as cell-based. Also noted: Measurement of the Effects of Drugs on the Expression of AR in Cells by ELISA Method; endogenous in cells; host or cells: LNCaP. To be noted: 24 hours of drug treatment, AR by ELISA. The method, boiled down:
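LNCaP cells at about 15,000/well were treated for 24 h with compound at 0.0001–2 μmol/L final. AR in cell lysates was measured by ELISA (OD450). Inhibition was relative to DMSO control after blank subtraction, and DC50 was calculated from it.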

For `CC1(C)C(=O)N(c2ccc(C#N)c(C(F)(F)F)c2F)C(=S)N1c1ccc(-c2ccc(OC3CCN(C(=O)COc4cccc5c4C(=O)N(C4CCC(=O)NC4=O)C5=O)CC3)cc2)nc1` (stereo not drawn) [Compound A37], the “eAUC0.5-2 h” value in data set [1] is 98 ± 48 ng·h/mL. The DC50 at AR turned out to be 18.6 nM.

As for `Cc1ncsc1-c1ccc([C@H](C)NC(=O)[C@@H]2C[C@@H](O)CN2C(=O)[C@@H](NC(=O)COCCCCOc2ccc(-c3ncc(N4C(=S)N(c5ccc(C#N)c(C(F)(F)F)c5F)C(=O)C4(C)C)cc3C(F)(F)F)cc2F)C(C)(C)C)cc1` [Compound A108], the “eAUC0.5-2 h” value in data set [1] is 993 ± 201 ng·h/mL. This compound had a DC50 at AR of 136 nM.

Turning to `Cc1ncsc1-c1ccc([C@H](CC(=O)N2CCC(C#Cc3ccc(N4C(=S)N(c5ccc(C#N)c(C(F)(F)F)c5F)C(=O)C4(C)C)cc3)CC2)NC(=O)[C@@H]2C[C@@H](O)CN2C(=O)[C@@H](NC(=O)C2(F)CC2)C(C)(C)C)cc1` [Compound A133], in data set [1], the “eAUC0.5-2 h” value was 2253 ± 851 ng·h/mL. On AR, this compound showed a DC50 of 33.3 nM.

For `CC1(C)C(=O)N(c2ccc(C#N)c(C(F)(F)F)c2F)C(=S)N1c1ccc(-c2ccc(OCCNC(=O)COc3cccc4c3C(=O)N(C3CCC(=O)NC3=O)C4=O)c(C#N)c2)nc1` (stereo not drawn) [Compound A36], the “eAUC0.5-2 h” value in data set [1] turned out to be 29 ± 12 ng·h/mL. In addition, the DC50 at AR was found to be 93 nM.

`Cc1ncsc1-c1ccc(CNC(=O)[C@@H]2C[C@@H](O)CN2C(=O)[C@@H](NC(=O)COCCCCOc2ccc(-c3ccc(N4C(=S)N(c5ccc(C#N)c(C(F)(F)F)c5F)C(=O)C4(C)C)cn3)cc2F)C(C)(C)C)cc1` [Compound A55]: the “eAUC0.5-2 h” value in data set [1] turned out to be 396 ± 79 ng·h/mL. The DC50 on AR turned out to be 38.8 nM.

On to `Cc1ncsc1-c1ccc(CNC(=O)[C@@H]2C[C@@H](O)CN2C(=O)[C@@H](NC(=O)COCCCCOc2c(F)cc(-c3ncc(N4C(=S)N(c5ccc(C#N)c(C(F)(F)F)c5F)C(=O)C4(C)C)cc3F)cc2F)C(C)(C)C)cc1` [Compound A77], for which, in data set [1], the “eAUC0.5-2 h” value was 1354 ± 205 ng·h/mL. On AR, this compound had a DC50 of 114 nM.

Take `Cc1ncsc1-c1ccc(CNC(=O)[C@@H]2C[C@@H](O)CN2C(=O)[C@@H](NC(=O)COCCCCOc2ccc(-c3ncc(N4C(=S)N(c5ccc(C#N)c(C(F)(F)F)c5F)C(=O)C4(C)C)cc3F)cc2F)C(C)(C)C)cc1` [Compound A70]: the “eAUC0.5-2 h” value in data set [1] was determined as 1686 ± 938 ng·h/mL. Also, the DC50 at AR is 62.1 nM.

In the case of `Cc1ncsc1-c1ccc(CNC(=O)[C@@H]2C[C@@H](O)CN2C(=O)[C@@H](NC(=O)COCCCCCOc2c(F)cc(-c3ncc(N4C(=S)N(c5ccc(C#N)c(C(F)(F)F)c5F)C(=O)C4(C)C)cc3F)cc2F)C(C)(C)C)cc1` [Compound A97], in data set [1], the “eAUC0.5-2 h” value amounted to 1690 ± 158 ng·h/mL. Further, on AR, the DC50 was determined as 98.4 nM.

With `Cc1ncsc1-c1ccc(CNC(=O)[C@@H]2C[C@@H](O)CN2C(=O)[C@@H](NC(=O)COCCCCOc2ccc(-c3ncc(N4C(=S)N(c5ccc(C#N)c(C(F)(F)F)c5F)C(=O)C4(C)C)cc3F)cc2)C(C)(C)C)cc1` [Compound A63], the “eAUC0.5-2 h” value in data set [1] was determined as 373 ± 242 ng·h/mL. The DC50 on AR amounted to 37.9 nM.

Turning to `Cc1ncsc1-c1ccc([C@H](CC(=O)N2CCC(Oc3ccc(-c4ncc(N5C(=S)N(c6ccc(C#N)c(C(F)(F)F)c6F)C(=O)C5(C)C)cc4F)cc3F)CC2)NC(=O)[C@@H]2C[C@@H](O)CN2C(=O)[C@@H](NC(=O)C2(F)CC2)C(C)(C)C)cc1` [Compound A136], the “eAUC0.5-2 h” value in data set [1] worked out at 697 ± 127 ng·h/mL. This compound had a DC50 at AR of 68 nM.

Regarding `Cc1ncsc1-c1ccc(CNC(=O)[C@@H]2C[C@@H](O)CN2C(=O)[C@@H](NC(=O)COCCCCOc2ccc(-c3ncc(N4C(=S)N(c5ccc(C#N)c(C(F)(F)F)c5F)C(=O)C4(C)C)cn3)cc2F)C(C)(C)C)cc1` [Compound A111], in data set [1], the “eAUC0.5-2 h” value was 297 ± 78 ng·h/mL. The same compound returned a DC50 on AR of 46.2 nM.

`Cc1ncsc1-c1ccc(CNC(=O)[C@@H]2C[C@@H](O)CN2C(=O)[C@@H](NC(=O)COCCCCOc2ccc(-c3ccc(N4C(=S)N(c5ccc(C#N)c(C(F)(F)F)c5F)C(=O)C4(C)C)cn3)cc2C#N)C(C)(C)C)cc1` [Compound A57]: the “eAUC0.5-2 h” value in data set [1] is 182 ± 84 ng·h/mL. The compound also displayed a DC50 on AR of 31.8 nM.

With `Cc1ncsc1-c1ccc([C@H](C)NC(=O)[C@@H]2C[C@@H](O)CN2C(=O)[C@@H](NC(=O)COCCCCOc2ccc(-c3ncc(N4C(=S)N(c5ccc(C#N)c(C(F)(F)F)c5F)C(=O)C4(C)C)cc3F)c(C(F)(F)F)c2)C(C)(C)C)cc1` [Compound A109], in data set [1], the “eAUC0.5-2 h” value was 557 ± 108 ng·h/mL. This compound also displayed a DC50 at AR of 71.4 nM.

Consider `Cc1ncsc1-c1ccc(CNC(=O)[C@@H]2C[C@@H](O)CN2C(=O)[C@@H](NC(=O)COCCCCOc2ccc(-c3ccc(N4C(=S)N(c5ccc(C#N)c(C(F)(F)F)c5F)C(=O)C4(C)C)cn3)cc2Cl)C(C)(C)C)cc1` [Compound A83], for which the “eAUC0.5-2 h” value in data set [1] came out at 574 ± 176 ng·h/mL. On AR, this compound registered a DC50 of 87.8 nM.

In the case of `Cc1ncsc1-c1ccc(CNC(=O)[C@@H]2C[C@@H](O)CN2C(=O)[C@@H](NC(=O)COCCCCOc2ccc(-c3ncc(N4C(=S)N(c5ccc(C#N)c(C(F)(F)F)c5F)C(=O)C4(C)C)cc3F)cc2C#N)C(C)(C)C)cc1` [Compound A78], in data set [1], the “eAUC0.5-2 h” value amounted to 187 ± 66 ng·h/mL. On AR, this compound displayed a DC50 of 57.4 nM.

As to `CNC(=O)[C@@H]1C[C@@H](O)CN1C(=O)[C@@H](NC(=O)COCCCCOc1ccc(-c2ncc(N3C(=S)N(c4ccc(C#N)c(C(F)(F)F)c4F)C(=O)C3(C)C)cc2F)cc1F)C(C)(C)C` [Compound A137], in data set [1], the “eAUC0.5-2 h” value is 92 ± 34 ng·h/mL. The compound also displayed a DC50 at AR of 145 nM.

On to `Cc1ncsc1-c1ccc(CNC(=O)[C@@H]2C[C@@H](O)CN2C(=O)[C@@H](NC(=O)COCCCCOc2c(F)cc(-c3ccc(N4C(=S)N(c5ccc(C#N)c(C(F)(F)F)c5F)C(=O)C4(C)C)cn3)cc2F)C(C)(C)C)cc1` [Compound A103], for which the “eAUC0.5-2 h” value in data set [1] came to 984 ± 617 ng·h/mL. At AR, this compound displayed a DC50 of 152 nM.

Take `Cc1ncsc1-c1ccc(CNC(=O)[C@@H]2C[C@@H](O)CN2C(=O)[C@@H](NC(=O)COCCOCCOc2ccc(-c3ncc(N4C(=S)N(c5ccc(C#N)c(C(F)(F)F)c5F)C(=O)C4(C)C)cc3C(F)(F)F)cc2)C(C)(C)C)cc1` [Compound A93]: the “eAUC0.5-2 h” value in data set [1] stood at 275 ± 116 ng·h/mL. Besides, the DC50 at AR stood at 51.1 nM.
